Assay results taken from ChEMBL document CHEMBL3580622 (J Nat Prod, 2015).

Legend:
HL-60 = experiment: Cytotoxicity against human HL60 cells assessed as reduction in cell viability after 48 hrs by MTT assay; type: functional, cell-based; details: HL-60, 48 h
SW480 = experiment: Cytotoxicity against human SW480 cells assessed as reduction in cell viability after 48 hrs by MTT assay; type: functional, cell-based; details: SW480, 48 h
MCF7 = experiment: Cytotoxicity against human MCF7 cells assessed as reduction in cell viability after 48 hrs by MTT assay; type: functional, cell-based; details: MCF7, 48 h
SMMC-7721 = experiment: Cytotoxicity against human SMMC7721 cells assessed as reduction in cell viability after 48 hrs by MTT assay; type: functional, cell-based; details: SMMC-7721, 48 h
A549 = experiment: Cytotoxicity against human A549 cells assessed as reduction in cell viability after 48 hrs by MTT assay; type: functional, cell-based; details: A549, 48 h
Acetylcholinesterase = Acetylcholinesterase (Homo sapiens, UniProt P22303); experiment: Inhibition of human erythrocytes acetylcholinesterase after 30 mins using S-acetylthiocholine iodide substrate by spectrophotometry based Ellman method
Acetylcholinesterase, sequence (P22303 whole entry): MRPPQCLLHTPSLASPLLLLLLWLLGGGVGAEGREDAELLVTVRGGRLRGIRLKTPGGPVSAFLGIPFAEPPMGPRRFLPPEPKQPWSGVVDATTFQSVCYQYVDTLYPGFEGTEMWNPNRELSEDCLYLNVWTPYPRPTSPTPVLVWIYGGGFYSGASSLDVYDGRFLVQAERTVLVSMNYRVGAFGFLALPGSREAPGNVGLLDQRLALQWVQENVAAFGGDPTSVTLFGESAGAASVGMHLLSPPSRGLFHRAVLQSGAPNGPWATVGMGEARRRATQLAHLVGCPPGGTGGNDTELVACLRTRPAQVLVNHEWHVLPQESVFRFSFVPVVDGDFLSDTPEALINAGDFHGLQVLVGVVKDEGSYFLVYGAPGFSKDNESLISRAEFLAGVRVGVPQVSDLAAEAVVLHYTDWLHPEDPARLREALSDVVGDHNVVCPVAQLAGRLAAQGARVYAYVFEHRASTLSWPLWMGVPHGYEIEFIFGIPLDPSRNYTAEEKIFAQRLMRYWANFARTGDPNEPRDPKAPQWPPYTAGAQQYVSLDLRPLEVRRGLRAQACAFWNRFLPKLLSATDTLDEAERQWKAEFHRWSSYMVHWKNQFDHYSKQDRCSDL

Row | Compound | IC50 (HL-60) [µM] | IC50 (SW480) [µM] | IC50 (MCF7) [µM] | IC50 (SMMC-7721) [µM] | IC50 (A549) [µM] | IC50 (Acetylcholinesterase) [µM]
1 | CC(C)=CCC[C@]1(C)[C@@H](CC=C(C)C)C[C@]2(CC=C(C)C)C(=O)C(CC=C(C)C)=C(O)[C@@]1(C(=O)C(C)C)C2=O | > 40 | > 40 | > 40 | > 40 | > 40 | –
2 | CCC(C)C(=O)[C@]12C(=O)[C@]3(CC=C(C)C)C[C@H](CC=C(C)C)[C@@]1(C)CC[C@@H](C(C)(C)O)OC2=C(CC=C(C)C)C3=O (some centres undefined) | – | – | – | – | – | 37.2
3 | C=C(C)[C@H]1CC[C@@](C)(O)[C@@H](C2=C(O)C(CC=C(C)C)(CC=C(C)C)C(=O)C(C(=O)C(C)C)=C2O)C1 | – | – | – | – | – | 25.4
4 | CC(C)=CC[C@H]1C[C@]23C[C@H]4C(C)(C)c5ccccc5C(=O)[C@]45C(=O)[C@](CC=C(C)C)(C2=O)[C@@H](CC=C(C)C)[C@@]1(C)[C@@]35O | 14 | > 40 | 27.7 | 20.8 | 19.3 | –
5 | CC(C)=CC[C@]12C[C@@H]3[C@@H]4[C@@H](O)C(C)(C)[C@@H](C(C)C)CC4(C1=O)C(=O)[C@](C(=O)c1ccccc1)(C2=O)C3(C)C | 16.5 | 17.4 | 14.1 | 16.5 | 14.2 | 26.4
6 | CC(C)=CCC/C(C)=C/C[C@]12C[C@@H]3[C@@H]4[C@@H](O)C(C)(C)[C@@H](C(C)C)CC4(C1=O)C(=O)[C@](C(=O)c1ccccc1)(C2=O)C3(C)C | 14.5 | 19.1 | 17.6 | 14.2 | 13.3 | –
7 | CC(C)=CC[C@]12C[C@@H]3[C@@H]4[C@@H](O)C(C)(C)[C@@H](C(C)(C)O)CC4(C1=O)C(=O)[C@](C(=O)c1ccccc1)(C2=O)C3(C)C | 17.1 | > 40 | 28.4 | 20.8 | 24.9 | –
8 | C/C(=C\C[C@]12C[C@H]3C[C@@H]4C(C)(C)CC[C@@]4(C1=O)C(=O)[C@](C(=O)c1ccccc1)(C2=O)C3(C)C)CC/C=C/C(C)C | – | – | – | – | – | 9.8
9 | CCC(C)C(=O)[C@]12C(=O)[C@]3(CC=C(C)C)OC1(O)[C@](CC=C(C)C)(C[C@H](CC=C(C)C)[C@@]2(C)CCC=C(C)C)C3=O (some centres undefined) | > 40 | > 40 | > 40 | > 40 | > 40 | –
10 | CC(C)=CCC[C@]1(C)[C@@H](CC=C(C)C)C[C@]23C[C@@H](C(C)(C)O)OC2=C(CC=C(C)C)C(=O)[C@@]1(C(=O)C(C)C)C3=O | > 40 | > 40 | > 40 | > 40 | > 40 | –
11 | CCC(C)C(=O)[C@@]12C(=O)C(CC=C(C)C)=C3O[C@H](C(C)(C)O)C[C@]3(C[C@H](CC=C(C)C)[C@@]1(C)CCC=C(C)C)C2=O (some centres undefined) | > 40 | > 40 | > 40 | > 40 | > 40 | –
12 | CC(C)=CCC[C@]1(C)[C@@H](CC=C(C)C)C[C@]23C[C@@H](C(C)(C)O)OC2=C(CC=C(C)C)C(=O)[C@@]1(C(=O)c1ccccc1)C3=O | > 40 | > 40 | > 40 | > 40 | > 40 | –
13 | CC(C)=CCC1(CC=C(C)C)C(=O)[C@]2(C[C@H]3[C@@H](CC[C@@]3(C)O)[C@](C)(O)C2)C(=O)C(C(=O)C(C)C)=C1O | > 40 | > 40 | > 40 | > 40 | > 40 | –
14 | CC(C)=CCC/C(C)=C/C[C@]12C[C@@H]3[C@H](C=C(C)C)[C@](CC=C(C)C)(C1=O)C(=O)[C@](C(=O)c1ccccc1)(C2=O)C3(C)C | > 40 | > 40 | > 40 | > 40 | > 40 | –
15 | CC(C)=CCC[C@]1(C)[C@@H](CC=C(C)C)C[C@]2(CC=C(C)C)C(=O)[C@@]3(CC=C(C)C)OC2(O)[C@]1(C(=O)C(C)C)C3=O | > 40 | > 40 | > 40 | > 40 | > 40 | –
16 | CC(=O)O[C@H]1C(=O)[C@@]2(C)[C@H]([C@H](OC(=O)c3ccccc3)[C@]3(O)C[C@H](OC(=O)[C@H](O)[C@@H](NC(=O)c4ccccc4)c4ccccc4)C(C)=C1C3(C)C)[C@]1(OC(C)=O)CO[C@@H]1C[C@@H]2O [PACLITAXEL] | < 0.008 | < 0.008 | < 0.008 | < 0.008 | < 0.008 | –
17 | CC(C)=CC[C@]12C[C@@H]3[C@H](C=C(C)C)[C@](CC=C(C)C)(C1=O)C(=O)[C@](C(=O)c1ccccc1)(C2=O)C3(C)C [PLUKENETIONE A] | 23.6 | > 40 | 27.7 | 16.6 | 19.8 | –
